This assay has as its target Factor D (Homo sapiens (Human), UniProt P00746). The assay is described as follows: biochemical. The class given is biochemical. As to conditions: read-out: IC50.

Sequence of Factor D (P00746 26-253): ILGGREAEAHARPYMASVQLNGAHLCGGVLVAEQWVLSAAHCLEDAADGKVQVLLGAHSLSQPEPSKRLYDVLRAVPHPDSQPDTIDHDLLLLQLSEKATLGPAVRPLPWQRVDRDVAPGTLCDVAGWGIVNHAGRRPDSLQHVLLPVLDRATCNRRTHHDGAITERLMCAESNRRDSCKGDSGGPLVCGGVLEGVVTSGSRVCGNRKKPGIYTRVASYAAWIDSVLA

On to `C[C@H]1C[C@@H](C(=O)NCc2cccc(Cl)c2F)N(C(=O)Nc2cn(C(N)=O)c3ccccc23)C1` [Example 182, (2S,4S)-4-Methyl-pyrrolidine-1,2-dicarboxylic acid 1-[(1-carbamoyl-1H-indol-3-yl)-amide] 2-(3-chloro-2-fluoro-benzylamide)], for which the IC50 was determined as 63 nM.
In the case of `NC(=O)n1cc(NC(=O)N2C3CC3C[C@H]2C(=O)NCc2cccc(Cl)c2)c2ccccc21` (stereo partly drawn) [Example 183, (1R,3S,5R)-2-Aza-bicyclo[3.1.0]hexane-2,3-dicarboxylic acid 2-[(1-carbamoyl-1H-indol-3-yl)-amide] 3-(3-chloro-benzylamide)] it was 20 nM; in that of `COC[C@@]12C[C@@H](C(=O)NCc3cccc(Cl)c3F)N(C(=O)Nc3cn(C(N)=O)c4ccccc34)[C@@H]1C2` [Example 184, (1R,3S,5S)-5-Methoxymethyl-2-aza-bicyclo[3.1.0]hexane-2,3-dicarboxylic acid 2-[(1-carbamoyl-1H-indol-3-yl)-amide] 3-(3-chloro-2-fluoro-benzylamide)], 9 nM.
In the case of `NC(=O)n1cc(NC(=O)N2C3CC3C[C@H]2C(=O)Nc2ccncc2F)c2ccccc21` (stereo partly drawn) [Example 185, (1R,3S,5R)-2-Aza-bicyclo[3.1.0]hexane-2,3-dicarboxylic acid 2-[(1-carbamoyl-1H-indol-3-yl)-amide] 3-[(3-fluoro-pyridin-4-yl)-amide]] it was 550 nM; in that of `CO[C@@H]1CCN(C(=O)Nc2cn(C(N)=O)c3ccccc23)[C@@H]1C(=O)NCc1cccc(Cl)c1F` [Example 186, (2S,3R)-3-Methoxy-pyrrolidine-1,2-dicarboxylic acid 1-[(1-carbamoyl-1H-indol-3-yl)-amide] 2-(3-chloro-2-fluoro-benzylamide)], 20 nM; in that of `N#C[C@H]1C[C@@H](C(=O)Nc2cccc(OC(F)(F)F)c2F)N(C(=O)Nc2cn(C(N)=O)c3ccccc23)C1` [Example 188, (2S,4S)-4-cyano-pyrrolidine-1,2-dicarboxylic acid 1-[(1-carbamoyl-1H-indol-3-yl)-amide]2-[(2-fluoro-3-trifluoromethoxy-phenyl)-amide]], 1070 nM.
For the molecule `CN(C)[C@@H]1CN(C(=O)Nc2cn(C(N)=O)c3ccccc23)[C@H](C(=O)NCc2cccc(Cl)c2F)[C@H]1F` [Example 189, (2R,3S,4R)-4-Dimethylamino-3-fluoro-pyrrolidine-1,2-dicarboxylic acid 1-[(1-carbamoyl-1H-indol-3-yl)-amide] 2-(3-chloro-2-fluoro-benzylamide)], the IC50 was determined as 942 nM.
With `NC(=O)n1cc(NC(=O)N2CC[C@@H](F)[C@H]2C(=O)NCc2cccc(Cl)c2F)c2ccccc21` [Example 190, (2R,3R)-3-Fluoro-pyrrolidine-1,2-dicarboxylic acid 1-[(1-carbamoyl-1H-indol-3-yl)-amide] 2-(3-chloro-2-fluoro-benzylamide)], the IC50 turned out to be 20 nM.
In the case of `C[C@@]1(C(=O)Nc2cccc(OC(F)(F)F)c2)CCCN1C(=O)Nc1cn(C(N)=O)c2ccccc12` [Example 192, (S)-2-Methyl-pyrrolidine-1,2-dicarboxylic acid 1-[(1-carbamoyl-1H-indol-3-yl)-amide] 2-[(3-trifluoromethoxy-phenyl)-amide]] it was 17800 nM; in that of `NC(=O)n1cc(NC(=O)N2C[C@H](F)C[C@H]2C(=O)Nc2cncc(Cl)c2)c2ccccc21` [Example 193, (2S,4R)-4-Fluoro-pyrrolidine-1,2-dicarboxylic acid 1-[(1-carbamoyl-1H-indol-3-yl)-amide] 2-[(5-chloro-pyridin-3-yl)-amide]], 160 nM.
In the case of `NC(=O)n1cc(NC(=O)N2C[C@H](F)C[C@H]2C(=O)Nc2cncc(Br)c2)c2ccccc21` [Example 194, (2S,4R)-4-Fluoro-pyrrolidine-1,2-dicarboxylic acid 1-[(1-carbamoyl-1H-indol-3-yl)-amide] 2-[(5-bromo-pyridin-3-yl)-amide]] it was 93 nM.
In the case of `NC(=O)n1cc(NC(=O)N2[C@@H]3C[C@@H]3C[C@H]2C(=O)NCc2cccc(F)c2F)c2ccccc21` [Example 195, (1R,3S,5R)-2-Aza-bicyclo[3.1.0]hexane-2,3-dicarboxylic acid 2-[(1-carbamoyl-1H-indol-3-yl)-amide] 3-(2,3-difluoro-benzylamide)] it was 14 nM; in that of `NC(=O)n1cc(NC(=O)N2C[C@@](O)(CO)C[C@H]2C(=O)NCc2cccc(Cl)c2F)c2ccccc21` [Example 196, (2S,4R)-4-Hydroxy-4-hydroxymethyl-pyrrolidine-1,2-dicarboxylic acid 1-[(1-carbamoyl-1H-indol-3-yl)-amide] 2-(3-chloro-2-fluoro-benzylamide)], 700 nM.
On to `NC(=O)n1cc(NC(=O)N2C[C@H]3OC3[C@H]2C(=O)NCc2cccc(Cl)c2F)c2ccccc21` (stereo partly drawn) [Example 197, (1S,2S,5R)-6-Oxa-3-aza-bicyclo[3.1.0]hexane-2,3-dicarboxylic acid 3-[(1-carbamoyl-1H-indol-3-yl)-amide] 2-(3-chloro-2-fluoro-benzylamide)], for which the IC50 was 100 nM.
In the case of `COC(=O)c1cc(Br)cc(NC(=O)[C@@H]2SCCN2C(=O)Nc2cn(C(N)=O)c3ccccc23)c1` [Example 198, 3-Bromo-5-{[(S)-3-(1-carbamoyl-1H-indol-3-ylcarbamoyl)-thiazolidine-2-carbonyl]-amino}-benzoic acid methyl ester] it was 357 nM; in that of `Cn1nc(-c2ccccc2)cc1NC(=O)[C@@H]1CCCN1C(=O)Nc1cn(C(N)=O)c2ccccc12` [Example 199, (S)-Pyrrolidine-1,2-dicarboxylic acid 1-[(1-carbamoyl-1H-indol-3-yl)-amide] 2-[(2-methyl-5-phenyl-2H-pyrazol-3-yl)-amide]], 8650 nM.
In the case of `COC(=O)[C@H]1C[C@@H](C(=O)NCc2cccc(Cl)c2F)N(C(=O)Nc2cn(C(N)=O)c3ccccc23)C1` [Example 200, (3S,5S)-1-(1-Carbamoyl-1H-indol-3-ylcarbamoyl)-5-(3-chloro-2-fluoro-benzylcarbamoyl)-pyrrolidine-3-carboxylic acid methyl ester] it was 25 nM; in that of `NC(=O)n1cc(NC(=O)N2C[C@](O)(CO)C[C@H]2C(=O)NCc2cccc(Cl)c2F)c2ccccc21` [Example 202, (2S,4S)-4-Hydroxy-4-hydroxymethyl-pyrrolidine-1,2-dicarboxylic acid 1-[(1-carbamoyl-1H-indol-3-yl)-amide] 2-(3-chloro-2-fluoro-benzylamide)], 450 nM.
Turning to `NC(=O)n1cc(NC(=O)N2[C@@H]3C[C@@H]3C[C@H]2C(=O)N[C@H](CO)c2cccc(Cl)c2F)c2ccccc21` [Example 203, (1R,3S,5R)-2-Aza-bicyclo[3.1.0]hexane-2,3-dicarboxylic acid 2-[(1-carbamoyl-1H-indol-3-yl)-amide] 3-{[(S)-1-(3-chloro-2-fluoro-phenyl)-2-hydroxy-ethyl]-amide}], the IC50 came out at 6 nM.
Regarding `CO[C@H]1[C@@H](C(=O)NCc2cccc(Cl)c2F)N(C(=O)Nc2cn(C(N)=O)c3ccccc23)C[C@@H]1F` [Example 204, (2S,3S,4S)-4-Fluoro-3-methoxy-pyrrolidine-1,2-dicarboxylic acid 1-[(1-carbamoyl-1H-indol-3-yl)-amide] 2-(3-chloro-2-fluoro-benzylamide)], the IC50 is 7 nM.
For the molecule `C[C@@]1(F)C[C@@H](C(=O)NCc2cccc(Cl)c2F)N(C(=O)Nc2cn(C(N)=O)c3ccccc23)C1` [Example 205, (2S,4R)-4-Fluoro-4-methyl-pyrrolidine-1,2-dicarboxylic acid 1-[(1-carbamoyl-1H-indol-3-yl)-amide] 2-(3-chloro-2-fluoro-benzylamide)], the concentration for half-maximal inhibition (IC50) was determined as 14 nM.
Regarding `CC(=O)N[C@H]1[C@@H](C(=O)NCc2cccc(Cl)c2F)N(C(=O)Nc2cn(C(N)=O)c3ccccc23)C[C@@H]1F` [Example 206, (2S,3S,4S)-3-Acetylamino-4-fluoro-pyrrolidine-1,2-dicarboxylic acid 1-[(1-carbamoyl-1H-indol-3-yl)-amide] 2-(3-chloro-2-fluoro-benzylamide)], the IC50 worked out at 187 nM.
Take `NC(=O)n1cc(NC(=O)N2C[C@@H]3C[C@@H]3[C@H]2C(=O)N[C@H](CO)c2cccc(Cl)c2F)c2ccccc21` [Example 207, (1S,2S,5R)-3-Azabicyclo[3.1.0]hexane-2,3-dicarboxylic acid 3-[(1-carbamoyl-1H-indol-3-yl)-amide] 2-{[(S)-1-(3-chloro-2-fluoro-phenyl)-2-hydroxy-ethyl]-amide}]: the IC50 was 321 nM.
Consider `NC(=O)n1cc(NC(=O)N2CC[C@H](F)[C@H]2C(=O)NCc2cccc(Cl)c2F)c2ccccc21` [Example 208, (2R,3S)-3-Fluoro-pyrrolidine-1,2-dicarboxylic acid 1-[(1-carbamoyl-1H-indol-3-yl)-amide] 2-(3-chloro-2-fluoro-benzylamide)], for which the IC50 was determined as 29 nM.
For `NC(=O)n1cc(NC(=O)N2C[C@](F)(CN3CCOCC3)C[C@H]2C(=O)NCc2cccc(Cl)c2F)c2ccccc21` [Example 209, (2S,4R)-4-Fluoro-morpholin-4-ylmethyl-pyrrolidine-1,2-dicarboxylic acid 1-[(1-carbamoyl-1H-indol-3-yl)-amide] 2-(3-chloro-2-fluoro-benzylamide)], the IC50 came out at 1900 nM.
Consider `NC(=O)n1cc(NC(=O)N2C[C@H]3C[C@H]3[C@H]2C(=O)NCc2cccc(Cl)c2F)c2ccccc21` [Example 210, (1R,2S,5S)-3-Aza-bicyclo[3.1.0]hexane-2,3-dicarboxylic acid 3-[(1-carbamoyl-1H-indol-3-yl)-amide] 2-(3-chloro-2-fluoro-benzylamide)], for which the IC50 was found to be 22 nM.
On to `CC(=O)N[C@@H]1CN(C(=O)Nc2cn(C(N)=O)c3ccccc23)[C@H](C(=O)NCc2cccc(Cl)c2F)[C@H]1F` [Example 211, (2R,3S,4R)-4-Acetylamino-3-fluoro-pyrrolidine-1,2-dicarboxylic acid 1-[(1-carbamoyl-1H-indol-3-yl)-amide] 2-(3-chloro-2-fluoro-benzylamide)], for which the IC50 amounted to 1320 nM.
For `NC(=O)n1cc(NC(=O)N2C[C@H]3C[C@H]3[C@H]2C(=O)N[C@H](CO)c2cccc(Cl)c2F)c2ccccc21` [Example 212, (1R,2S,5S)-3-Azabicyclo[3.1.0]hexane-2,3-dicarboxylic acid 3-[(1-carbamoyl-1H-indol-3-yl)-amide] 2-{[(S)-1-(3-chloro-2-fluoro-phenyl)-2-hydroxy-ethyl]-amide}], the IC50 is 10 nM.

The values are drawn from patent publication US9085555B2, “Complement pathway modulators and uses thereof” (priority 2011, dated 2015).
